Assay results taken from article PMC9652805, “Design, synthesis and evaluation of novel 1,2,4-triazole derivatives as promising anticancer agents” (BMC Chemistry, 2022).

Experiments:
[1] = tested on: A549 cells (human lung cancer cell line); experiment: MTT cytotoxicity assay, A549; type: cell-based; details: mean ± SEM
Description: (§1) Cell cultures were obtained from the human lung cancer cell line (A549), human cervical cancer cell line (Hela), human breast cancer cell line (MCF-7) and Normal cells isolated from human lung tissue (MRC-5) taken from the National Cell Bank of Iran (NCBI, Pasteur Institute, Tehran, Iran). All cells were cultured in RPMI-1640 medium supplemented with 10% FBS, antibiotics (penicillin 100 U/mL, streptomycin 100 µg/mL), at 37 °C in a humidified atmosphere containing 5% CO2.
(§2) Cytotoxic activities of all the synthesized compounds were assessed by standard 3-(4,5-dimethylthiazol-yl)-2,5-diphenyl-tetrazolium bromide (MTT) assay. The assay was performed according to a known protocol. The cells were seeded and plated in 96-well microplates at a density of 1 × 10^4 cells per well in 180 μL complete culture media. After 24 h incubation, the cells were treated with […] of different concentrations of synthesized compounds ranging from 1 × 10^–4 to 1 × 10^–7 M at identical conditions in triplicates. After 72 h, media were replaced with 150 μL media containing 0.5 mg/mL of MTT solution [57]. The plates were incubated at 37 °C for additional four hours. Then, media containing MTT were discarded and 150 μL dimethylsulfoxide (DMSO, > 99%) was added to each well to dissolve the formazan crystals.

[2] = tested on: MRC-5 cells (normal cells from human lung tissue); experiment: MTT cytotoxicity assay, MRC-5 normal cell line (safety); type: cell-based; details: mean ± SEM
Description: as §1, §2

[3] = tested on: Hela cells (human cervical cancer cell line); experiment: MTT cytotoxicity assay, Hela; type: cell-based; details: 72 h, mean ± SEM
Description: as §1, §2

[4] = tested on: MCF-7 cells (human breast cancer cell line); experiment: MTT cytotoxicity assay, MCF-7; type: cell-based; details: mean ± SEM
Description: as §1, §2

Compound | IC50 ([1]; Homo sapiens, A549, 72 h) | melting point | IC50 ([2]; Homo sapiens, MRC5, 72 h) | IC50 ([3]; Homo sapiens, HeLa) | IC50 ([4]; Homo sapiens, MCF7, 72 h) | IC50 ([1]; 72 h) | IC50 ([2]; 72 h) | IC50 [3] | IC50 ([4]; 72 h)
O=C(c1ccccc1)C(c1ccccc1)C(C(=O)c1ccc(F)cc1)n1cncn1 (stereo not shown) [10 g, 1-(4-fluorophenyl)-3,4-diphenyl-2-(1H-1,2,4-triazol-1-yl) butane-1,4-dione] | 150 ± 4.9 µM | 154 to 157 °C | 257 ± 4.3 µM | 128 ± 6.1 µM | 93 ± 3.1 µM | – | – | – | –
O=C(c1ccccc1)C(c1ccccc1)C(C(=O)c1ccc(Cl)cc1)n1cncn1 (stereo not shown) [10 h, 1-(4-chlorophenyl)-3,4-diphenyl-2-(1H-1,2,4-triazol-1-yl) butane-1,4-dione] | 112 ± 10.8 µM | 174 to 176 °C | 249 ± 5.8 µM | 172 ± 7.1 µM | 89 ± 5.2 µM | – | – | – | –
O=C(c1ccccc1)C(c1ccccc1)C(C(=O)c1ccc(Cl)cc1Cl)n1cncn1 (stereo not shown) [10 k, 1-(2,4-dichlorophenyl)-3,4-diphenyl-2-(1H-1,2,4-triazol-1-yl) butane-1,4-dione] | 102 ± 5.2 µM | 178 to 181 °C | 148 ± 6.1 µM | 121 ± 6.8 µM | 44.1 ± 7.6 µM | – | – | – | –
N.N.[Cl][Pt][Cl] [Cis platin, reference compound] | – | – | – | – | – | 14.8 ± 0.27 µM | 45.2 ± 2.5 µM | 12.3 ± 3.3 µM | 36.5 ± 1.9 µM
O=C(c1ccccc1)C(Cc1ccccc1)n1cncn1 (stereo not shown) [Compound 7a, 1,3-diphenyl-2-(1H-1,2,4-triazol-1-yl) propan-1-one] | 150 ± 5.3 µM | 145 to 148 °C | > 300 µM | 92.4 ± 7.3 µM | 154 ± 5.8 µM | – | – | – | –
O=C(c1ccc(Cl)cc1Cl)C(Cc1ccccc1)n1cncn1 (stereo not shown) [Compound 7b, 1-(2,4-dichlorophenyl)-3-phenyl-2-(1H-1,2,4-triazol-1-yl) propan-1-one] | 75.8 ± 4.6 µM | 121 to 123 °C | 72.6 ± 3.4 µM | 7.9 ± 3.1 µM | 23.4 ± 2.6 µM | – | – | – | –
O=C(c1ccc(Cl)cc1)C(C(c1ccccc1)c1ccccc1)n1cncn1 (stereo not shown) [Compound 7c, 1-(4-chlorophenyl)-3,3-diphenyl-2-(1H-1,2,4-triazol-1-yl) propan-1-one] | 177 ± 5.9 µM | 140 to 142 °C | 201 ± 9.5 µM | 81.7 ± 6.3 µM | 60 ± 4.9 µM | – | – | – | –
O=C(c1ccc(Br)cc1)C(C(c1ccccc1)c1ccccc1)n1cncn1 (stereo not shown) [Compound 7d, 1-(4-bromophenyl)-3,3-diphenyl-2-(1H-1,2,4-triazol-1-yl) propan-1-one] | 43.4 ± 4.5 µM | 110 to 113 °C | 35.6 ± 2.7 µM | < 12 µM | 9.8 ± 0.9 µM | – | – | 12.1 ± 3.6 µM | –
O=C(c1ccc(Cl)cc1Cl)C(C(c1ccccc1)c1ccccc1)n1cncn1 (stereo not shown) [Compound 7e, 1-(2,4-dichlorophenyl)-3,3-diphenyl-2-(1H-1,2,4-triazol-1-yl) propan-1-one] | 9.4 ± 1.8 µM | 118 to 121 °C | 27.8 ± 3.7 µM | – | 4.7 ± 1.4 µM | – | – | – | –
c1ccc(CC(Cc2ccccc2)n2cncn2)cc1 [Compound 8a, 1-(1,3-diphenylpropan-2-yl)-1H-1,2,4-triazole] | 127 ± 4.9 µM | 81 to 83 °C | 279.1 ± 2.5 µM | 142 ± 2.1 µM | 158 ± 3.5 µM | – | – | – | –
Clc1ccc(CC(C(c2ccccc2)c2ccccc2)n2cncn2)cc1 (stereo not shown) [Compound 8b, 1-(3-(4-chlorophenyl)-1,1-diphenylpropan-2-yl)-1H-1,2,4-triazole] | 124 ± 3.4 µM | 93 to 96 °C | 279 ± 2.8 µM | 198 ± 5.5 µM | 178 ± 2.5 µM | – | – | – | –
Brc1ccc(CC(C(c2ccccc2)c2ccccc2)n2cncn2)cc1 (stereo not shown) [Compound 8c, 1-(3-(4-bromophenyl)-1,1-diphenylpropan-2-yl)-1H-1,2,4-triazole] | 104 ± 7.3 µM | 88 to 91 °C | 104 ± 7.3 µM | 79.1 ± 2.5 µM | 52.8 ± 7.4 µM | – | – | – | –
O=C(CC(C(=O)c1ccccc1)n1cncn1)c1ccccc1 (stereo not shown) [Compound 10a, 4-diphenyl-2-(1H-1,2,4-triazol-1-yl) butane-1,4-dione] | 21.1 ± 4.2 µM | 115 to 118 °C | 21.7 ± 1.5 µM | – | 6.43 µM | – | – | – | 6.4 ± 1.7 µM
O=C(CC(C(=O)c1ccc(Cl)cc1)n1cncn1)c1ccccc1 (stereo not shown) [Compound 10b, 1-(4-chlorophenyl)-4-phenyl-2-(1H-1,2,4-triazol-1-yl) butane-1,4-dione] | 110 ± 1.3 µM | 131 to 133 °C | 259 ± 8.3 µM | 48.3 ± 4.1 µM | 62.6 ± 2.5 µM | – | – | – | –
O=C(CC(C(=O)c1ccc(Br)cc1)n1cncn1)c1ccccc1 (stereo not shown) [Compound 10c, 1-(4-bromophenyl)-4-phenyl-2-(1H-1,2,4-triazol-1-yl) butane-1,4-dione] | 104 ± 1.3 µM | 149 to 151 °C | 57.8 ± 1.7 µM | 32.4 ± 6.9 µM | 17.3 ± 5.4 µM | – | – | – | –
O=C(CC(C(=O)c1ccc(Br)cc1)n1cncn1)c1ccc(Cl)cc1 (stereo not shown) [Compound 10d, 1-(4-bromophenyl)-4-(4-chlorophenyl)-2-(1H-1,2,4-triazol-1-yl) butane-1,4-dione] | 16.5 ± 2.6 µM | 162 to 165 °C | 42.8 ± 2.1 µM | < 12 µM | 10.2 ± 2.1 µM | – | – | 9.8 ± 1.7 µM | –
O=C(CC(C(=O)c1ccc(Cl)cc1Cl)n1cncn1)c1ccccc1 (stereo not shown) [Compound 10e, 1-(2,4-dichlorophenyl)-4-phenyl-2-(1H-1,2,4-triazol-1-yl) butane-1,4-dione] | 104 ± 5.9 µM | 153 to 156 °C | 104 ± 7.3 µM | 31.6 ± 4.2 µM | 45.4 ± 6.5 µM | – | – | – | –
O=C(c1ccccc1)C(c1ccccc1)C(C(=O)c1ccccc1)n1cncn1 (stereo not shown) [Compound 10f, 4-triphenyl-3-(1H-1,2,4-triazol-1-yl) butane-1,4-dione] | 114 ± 7.6 µM | 185 to 188 °C | 289 ± 10.2 µM | 82.7 ± 5.8 µM | 134 ± 4.5 µM | – | – | – | –
O=C(c1ccccc1)C(c1ccccc1)C(C(=O)c1ccc(Br)cc1)n1cncn1 (stereo not shown) [Compound 10i, 1-(4-bromophenyl)-3,4-diphenyl-2-(1H-1,2,4-triazol-1-yl) butane-1,4-dione] | 135 ± 5.3 µM | 168 to 171 °C | 218 ± 3.2 µM | 59.3 ± 2.7 µM | 72.2 ± 6.5 µM | – | – | – | –
O=C(c1ccccc1)C(c1ccccc1)C(C(=O)c1ccc(F)cc1F)n1cncn1 (stereo not shown) [Compound 10j, 1-(2,4-difluorophenyl)-3,4-diphenyl-2-(1H-1,2,4-triazol-1-yl) butane-1,4-dione] | 101 ± 1.8 µM | 114 to 117 °C | 101 ± 1.3 µM | 12.3 ± 1.9 µM | 45.4 ± 3.2 µM | – | – | – | –
